Source: publication PMC4805609, “Estrogenic Effects of Several BPA Analogs in the Developing Zebrafish Brain” (Frontiers in Neuroscience, 2016)
pIC50: −log10 of the molar value.

How the values were obtained:
zfERβ1 [1] = target: T1, zfERβ1 (Danio rerio, UniProt Q5PR29); assay: cyp19a1b-luciferase reporter gene assay in U251-MG glial cells transfected with zfERβ1; assay type: cell-based, zebrafish; settings: 10–6 M, 24 h, U251-MG cells with ERβ1, vs DMSO
T1 sequence (Q5PR29 1-592): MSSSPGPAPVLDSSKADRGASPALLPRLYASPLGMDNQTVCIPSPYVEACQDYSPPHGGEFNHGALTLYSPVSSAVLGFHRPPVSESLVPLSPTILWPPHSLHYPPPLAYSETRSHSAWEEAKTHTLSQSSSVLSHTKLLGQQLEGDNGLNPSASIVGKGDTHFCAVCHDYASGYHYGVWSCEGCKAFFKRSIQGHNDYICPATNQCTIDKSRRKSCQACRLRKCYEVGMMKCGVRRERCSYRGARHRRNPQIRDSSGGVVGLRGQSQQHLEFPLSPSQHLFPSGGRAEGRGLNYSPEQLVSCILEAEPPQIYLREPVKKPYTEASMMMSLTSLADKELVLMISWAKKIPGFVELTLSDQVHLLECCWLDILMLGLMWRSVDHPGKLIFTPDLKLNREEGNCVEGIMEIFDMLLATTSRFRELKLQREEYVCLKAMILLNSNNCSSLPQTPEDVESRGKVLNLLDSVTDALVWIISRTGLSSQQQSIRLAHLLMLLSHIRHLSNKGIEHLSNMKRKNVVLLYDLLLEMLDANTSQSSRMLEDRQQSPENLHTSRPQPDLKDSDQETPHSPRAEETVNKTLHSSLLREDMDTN
Excerpt: The zfER-α, zfER-β1, and zfER-β2 expression vectors correspond to Topo-pcDNA3 expression vector (Invitrogen, San Diego, CA, USA), containing the coding regions of each zebrafish estrogen receptor cDNA as previously described (Menuet et al., [2002]). The cyp19a1b-Luciferase plasmid consists of 500 bp of the proximal promoter region of zebrafish cyp19a1b gene, containing an ERE, coupled to the luciferase reporter gene (Menuet et al., [2002]).
(§1) Human U251-MG glial cells were maintained in phenol red-free Dulbecco's Modified Eagle's Medium (DMEM; Life Technologies, Saint Aubin, France) supplemented with 10% fetal calf serum (Biowest, Nuaillé, France), 4 mM L-Glutamine (Gibco, Carlsbad, CA, USA) and 1 mM Na-Pyruvate (Life Technologies, Saint Aubin, France) and kept at 37°C and 5% CO2 atmosphere (Le Page et al., [2006]). The medium was also supplemented with 20 U/mL penicillin, 20 μg/mL streptomycin, and 50 ng/mL amphotericin B (Gibco). For transfections, cells were plated in 24-well plates at a density of 25,000 cells/ml in the same medium, except the fetal calf serum was charcoal-treated and used at a concentration of 2.5%. Cells were transfected with 25 ng/well either the vector expression containing or not the zfERα, zfERβ1, zfERβ2 coding region and cytomegalovirus [CMV]−β-Galactosidase, and 150 ng/well of the cyp19a1b-Luciferase reporter plasmid, using JetPEI as a transfection reagent (Polyplus Transfection, Illkirch, France). […] Luciferase activity was measured 24 h later (Luciferase assay system, Promega, Madison, WI, USA). β-Galactosidase activity was used to normalize transfection efficiency. Chemicals were tested in at least 3 independent experiments and each experiment was performed in triplicate.

zfERβ2 [2] = target: T2, zfERβ2 (Danio rerio, UniProt Q7ZU32); assay: cyp19a1b-luciferase reporter gene assay in U251-MG glial cells transfected with zfERβ2; assay type: cell-based, zebrafish; settings: 10–6 M, 24 h, U251-MG cells with ERβ2, vs DMSO
T2 sequence (Q7ZU32 1-553): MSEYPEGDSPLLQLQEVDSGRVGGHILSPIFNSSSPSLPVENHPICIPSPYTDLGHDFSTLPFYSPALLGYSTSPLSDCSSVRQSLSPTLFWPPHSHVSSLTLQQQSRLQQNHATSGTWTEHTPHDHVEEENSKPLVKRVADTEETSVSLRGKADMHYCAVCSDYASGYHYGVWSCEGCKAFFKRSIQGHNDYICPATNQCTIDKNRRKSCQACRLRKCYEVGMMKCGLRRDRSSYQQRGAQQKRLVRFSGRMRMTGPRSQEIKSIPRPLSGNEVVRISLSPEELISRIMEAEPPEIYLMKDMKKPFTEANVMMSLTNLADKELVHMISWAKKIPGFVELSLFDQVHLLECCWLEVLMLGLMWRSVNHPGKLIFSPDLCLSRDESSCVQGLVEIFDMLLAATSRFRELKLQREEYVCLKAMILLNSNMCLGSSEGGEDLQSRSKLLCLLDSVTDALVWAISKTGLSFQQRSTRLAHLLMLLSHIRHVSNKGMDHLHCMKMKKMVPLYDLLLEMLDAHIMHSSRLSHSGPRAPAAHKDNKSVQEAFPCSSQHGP
Procedure: as §1, with “The” for “Human U251-MG glial cells were maintained in phenol red-free Dulbecco's Modified Eagle's Medium (DMEM; Life Technologies, Saint Aubin, France) supplemented with 10% fetal calf serum (Biowest, Nuaillé, France), 4 mM L-Glutamine (Gibco, Carlsbad, CA, USA) and 1 mM Na-Pyruvate (Life Technologies, Saint Aubin, France) and kept at 37°C and 5% CO2 atmosphere (Le Page et al., [2006]). The”

zfERβ2 [3] = target: T2, zfERβ2
Procedure: (§2) We also performed a competitive binding assay to test the binding properties of our compounds of interest with the three zfERs (Blair et al., [2000]). The three zebrafish estrogen receptor proteins were synthesized using the Topo-pcDNA3 expression vector containing the coding region of zfERα, zfERβ1, and zfERβ2 (Menuet et al., [2002]). The TNT Quick Coupled Transcription/Translation Systems kit (Promega, Madison, WI, USA) was used for synthesis of zfER proteins by adding 1 μg of each ER expression vector and according to the manufacturer's protocol. […] IC50 were calculated using GraphPad Prism, version 6.07.

zfERβ1 [4] = target: T1, zfERβ1; assay: competitive binding assay vs [3H]-E2 on in vitro translated zfERβ1; set-up: species or system zebrafish
Procedure: as §2

zfERα = target: T3, zfERα (Danio rerio, UniProt P57717); assay: competitive binding assay vs [3H]-E2 on in vitro translated zfERα; set-up: containing the coding regions of each zebrafish estrogen receptor cDNA; species or system zebrafish; settings: for receptor-binding activity: competition with [3H]-E2, ERα, Figure 8A
T3 sequence (P57717 1-569): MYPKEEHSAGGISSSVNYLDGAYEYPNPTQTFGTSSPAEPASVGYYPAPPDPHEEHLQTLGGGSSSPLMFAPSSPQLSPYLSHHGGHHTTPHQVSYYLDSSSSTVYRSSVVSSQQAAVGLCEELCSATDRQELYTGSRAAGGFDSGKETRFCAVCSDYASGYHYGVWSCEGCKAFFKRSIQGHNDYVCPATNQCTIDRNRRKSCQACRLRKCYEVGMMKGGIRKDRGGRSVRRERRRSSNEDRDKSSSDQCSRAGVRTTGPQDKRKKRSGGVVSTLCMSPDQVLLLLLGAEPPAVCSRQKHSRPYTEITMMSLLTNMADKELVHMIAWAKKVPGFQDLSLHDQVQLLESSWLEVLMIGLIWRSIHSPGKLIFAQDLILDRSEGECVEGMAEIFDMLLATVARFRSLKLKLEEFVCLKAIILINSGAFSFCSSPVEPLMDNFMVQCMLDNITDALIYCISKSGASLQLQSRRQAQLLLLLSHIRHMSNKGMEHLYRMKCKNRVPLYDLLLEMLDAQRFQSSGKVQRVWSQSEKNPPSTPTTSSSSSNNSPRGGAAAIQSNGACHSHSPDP
Procedure: as §2

Row | Structure (SMILES) | cyp19a1b-luciferase reporter gene induction (zfERβ1 [1]) | cyp19a1b-luciferase reporter gene induction (zfERβ2 [2]) | receptor-binding activity (zfERβ2 [3]) | receptor-binding activity (zfERβ1 [4]; competition with [3H]-E2, ERβ1, Figure 8B) | receptor-binding activity (zfERα) | pIC50 (zfERβ1 [4]) | pIC50 (zfERα; displacement of 10^−9 M [3H]-E2, ERα)
1 | CC(c1ccccc1)(c1ccc(O)cc1)c1ccc(O)cc1 [BPAP, 4,4′-(1-phenylethylidene)bisphenol] | did not stimulate | did not stimulate |  |  |  |  | 
2 | O=S(=O)(c1ccc(O)cc1)c1ccc(O)cc1 [BPS, bis-(4-hydroxyphenyl)sulfone] | did not stimulate | did not stimulate | almost no binding affinities | almost no binding affinities | almost no binding affinities |  | 
3 | Oc1ccc(C(c2ccc(O)cc2)(C(F)(F)F)C(F)(F)F)cc1 [BPAF, 2,2-bis(4-hydroxylphenyl)hexafluoropropane] |  |  |  |  | bind in vitro to ERα receptor | 6.18 | 7.12
